Reference: patent EP3061351B1, “Food product for young subjects” (Dopharma Research B.V., priority 2015, dated 2016)

What was measured:
[1] = test system: IPEC-J2 cells; experiment: MTT assay, cytotoxicity of DON; type: cell-based, porcine; details: 4.2 µM DON, confirmation of the literature, data not shown
Experimental: Intestinal porcine epithelial cells (IPEC-J2 passages 83 - 87) were a kind gift from prof. R. Pieters (IRAS, Utrecht University, The Netherlands). IPEC-J2 cells were cultured in 25 cm^2 cell culture flasks (Greiner Bio-One, Alphen a/d Rijn, The Netherlands) in Dulbecco's modified Eagle's medium (DMEM)/ Ham's F12 supplemented with 10% fetal bovine serum, penicillin (100 U/mL) and streptomycin (100 µg/mL) (Gibco, Life Technologies Europe, Bleiswijk, The Netherlands). IPEC-J2 cells were used for MTT analysis.
To confirm lack of cytotoxicity at 4.2 µM of DON as published previously by Akbari et al. (The FASEB Journal […]; 28, 2414-2429), an MTT assay using IPEC-J2 cells was performed in a 96-well plate. The MTT assay assesses cell viability by analyzing the capability of cells to reduce the tetrazolium dye MTT (3-(4,5-dimethylthiazol-2-yl)-2.5-diphenyltetrazolium bromide, Sigma Aldrich, Zwijndrecht, The Netherlands) into the purple colored formazan. Using colorimetric analysis, the cell viability is quantified. For the MTT assay, a 5 mg/ml MTT-stock was prepared in PBS and this was diluted six times in 10% FBS in medium. Supernatant was aspirated and cells were incubated with 100 µl of the MTT solution. This was incubated for 3 hours in the incubator. […] Plate was shaken at low intensity for ten minutes and absorption at 560 nm was measured using spectrophotometer (Fluostar Omega, BMG Labtech).

[2] = test system: Caco-2 cells; experiment: TEER measurements of Caco-2 monolayer challenged with DON; type: cell-based; details: 4.2 µM DON, 24 hours
Experimental: (§1) Caco-2 cells were cultured in minimal essential media (MEM), supplemented with 10% FBS, 1% non essential amino acids (NEAA), 1% pyruvate, penicillin (100 U/mL) and streptomycin (100 µg/mL), all from Gibco (Life Technologies Europe, Bleiswijk, The Netherlands). Experiments with Caco-2 cells were conducted with cells grown on sterile 0.3 cm2 transwell with 0.4 µm pore polyester membrane inserts placed in a 24-well plate (Corning, Sigma-Aldrich, The Netherlands), if not stated otherwise. The cells were seeded at a density of 1 * 10^5 cells per insert. The cell culture plates were incubated at 37°C, in a humidified atmosphere with 5% CO2. […] The cell culture was regularly tested and found to be free of mycoplasma contamination.
Caco-2 cells were cultured as described above. The integrity of the monolayer was evaluated on a regular basis using the first two 24-well plates during 21 days. To avoid contamination, in the next well plates, TEER was only measured right before the start of the experiment. On average, TEER values for untreated cells were 550 ± 24 Ω˙cm2. […]
Caco-2 and IPEC-J2 cells were grown on inserts and in 12 well plates respectively. […] TEER was measured as described above. Interleukin-8 (IL-8) was analyzed using porcine CXCL8/IL-8 DuoSet ELISA kit (DY535, R&D systems Abbingdon, UK) according to the manufacturer's protocol. […]

[3] = test system: Caco-2 cells; experiment: Interleukin-8 production of DON-challenged Caco-2 cells (ELISA); type: cell-based; details: apical side, 24 h incubation with 4.2 µM DON, digests 1:100 added 2 hours before DON
Experimental: as §1
Caco-2 and IPEC-J2 cells were grown on inserts and in 12 well plates respectively. Confluent layers of cells were incubated with 1:100 dilutions of digests 2 hours prior to addition of DON. Cells were then incubated in the presence of both digests and DON for 24 hours prior to analysis. TEER was measured as described above. Interleukin-8 (IL-8) was analyzed using porcine CXCL8/IL-8 DuoSet ELISA kit (DY535, R&D systems Abbingdon, UK) according to the manufacturer's protocol. Apical an basolateral supernatant of transwell plates were used for analysis. Samples were diluted ten times in PBS. […]

[4] = concentration of 4.2 µM, Akbari et al.; cited from earlier work
[5] = 4.2 µM for 24 hours, Akbari et al.; cited from earlier work
[6] = test system: streptococci; details: among naturally present medium and long chain free fatty acids, Kabara et al. 1972; cited from earlier work

Structure (SMILES) | cytotoxicity (MTT assay) [1] | TEER decrease as compared to control [2] | IL8 production [3] | direct cytotoxicity [4] | TEER reduction [5] | activity against streptococci [6]
CC1=C[C@H]2O[C@@H]3[C@H](O)C[C@](C)([C@@]2(CO)[C@H](O)C1=O)[C@]31CO1 [DON, Deoxynivalenol] | not cytotoxic | 15% | 121.7 pg/mL | not cytotoxic | ~80% | 
CCCCCCCCCCCC(=O)O [lauric acid] |  |  |  |  |  | among the most active free fatty acids
CCCCCC/C=C\CCCCCCCC(=O)O [palmitoleic acid] |  |  |  |  |  | among the most active free fatty acids
